Experimental data: ChEMBL document CHEMBL5620415, “Design, synthesis and anti-hepatic fibrosis activity of novel diphenyl vitamin D receptor agonists” (Eur J Med Chem, 2023)
Activity calls are given as the source filed them. The calls are words filed in the database; no cut-off is given here.

Assays:
[1] = Cytotoxicity against human LX-2 cells by CCK-8 assay; format: toxicity, cell-based
[2] = tested on: Mus musculus; test: Anti-fibrotic effect in improving CCl4-induced hepatic fibrosis C57BL/6 mouse model assessed as uniform liver parenchyma at 500 ug/kg, po five times a week for 2 weeks by qualitative ultrasound imaging analysis; format: functional, organism-based; conditions: dose 500.0 µg/kg
[3] = tested on: Mus musculus; test: Anti-fibrotic effect in CCl4-induced hepatic fibrosis C57BL/6 mouse model assessed as reduction in hepatic fibrosis lesions at 500 ug/kg, po five times a week for 2 weeks by Hematoxylin-Eosin (H&E) staining based assay; format: functional, organism-based; conditions: dose 500.0 µg/kg
[4] = tested on: Mus musculus; test: Anti-fibrotic effect in CCl4-induced hepatic fibrosis C57BL/6 mouse model assessed as inhibition of proliferation of fibrous tissue at 500 ug/kg, po five times a week for 2 weeks by Masson's Trichrome […] staining based assay; format: functional, organism-based; conditions: dose 500.0 µg/kg
[5] = tested on: Mus musculus; test: Anti-fibrotic effect in CCl4-induced hepatic fibrosis C57BL/6 mouse model assessed as inhibition of serum AST level at 500 ug/kg, po five times a week for 2 weeks; format: functional, organism-based; conditions: dose 500.0 µg/kg
[6] = Toxicity in CCl4-induced hepatic fibrosis C57BL/6 mouse model assessed as serum hypercalcemia at 500 ug/kg, po five times a week for 2 weeks by calcium assay kit; format: organism-based; conditions: in vivo, 0.5 mg/kg, 336 h, dose 500 µg/kg
[7] = tested on: Mus musculus; test: Anti-fibrotic effect in bile duct ligation (BDL) surgery-induced hepatic fibrosis C57BL/6 mouse model assessed as inhibition of fibronectin (Fn) expression in liver at 500 ug/kg, po five times a week for 2 weeks by RT-qPCR analysis; format: functional, organism-based; conditions: dose 500.0 µg/kg
[8] = tested on: Mus musculus; test: Anti-fibrotic effect in bile duct ligation (BDL) surgery-induced hepatic fibrosis C57BL/6 mouse model assessed as inhibition of Timp-1 expression in liver at 500 ug/kg, po five times a week for 2 weeks by RT-qPCR analysis; format: functional, organism-based; conditions: dose 500.0 µg/kg
[9] = tested on: Mus musculus; test: Anti-fibrotic effect in bile duct ligation (BDL) surgery-induced hepatic fibrosis C57BL/6 mouse model assessed as decrease in inflammatory cell infiltration at 500 ug/kg, po five times a week for 2 weeks by Hematoxylin-Eosin (H&E) staining based assay; format: functional, organism-based; conditions: dose 500.0 µg/kg
[10] = Toxicity in bile duct ligation (BDL) surgery-induced hepatic fibrosis C57BL/6 mouse model assessed as serum hypercalcemia at 500 ug/kg, po five times a week for 2 weeks by calcium assay kit; format: organism-based; conditions: in vivo, 0.5 mg/kg, 336 h, dose 500 µg/kg

## OCc1ccc(/C=C/c2ccc(OCCCC(F)(F)F)cc2)cc1CO
[1]
  IC50: > 30 µM
[2]
  Activity: Active
[3]
  Activity: Active
[4]
  Activity: Active
[5]
  Activity: Active
[6]
  Activity: Non-Toxic
[7]
  Activity: Active
[8]
  Activity: Active
[9]
  Activity: Active
[10]
  Activity: Non-Toxic
